# Assay results reported in patent US20150125915A1, “Method for Producing Lactic Acid” (Kao Corporation, priority 2012, published 2015).
# What was measured:
# [1] = test system: Rhizopus oryzae JCM14625 strain (=NBRC 5384); experiment: Evaluation of ability to produce lactic acid-1 (production rate of lactic acid); type: cell-based; conditions: 0.5% (w/v) surfactant in PDB medium at spore germination; rate in the absence of the surfactant = 100
# Protocol: (§1) Specifically, the mycelia of a fungus of the genus Rhizopus were prepared by the method of Production Example 2 using the surfactant and then grown by the method of Production Example 3. 6.0 g of the obtained wet fungus bodies of the genus Rhizopus was inoculated to 40 mL of an inorganic culture medium for lactic acid production evaluation (composition: 8.0% glucose, 0.1% ammonium sulfate, 0.06% potassium dihydrogen phosphate, 0.025% magnesium sulfate heptahydrate, 0.009% zinc sulfate heptahydrate, and 5.0% calcium carbonate; all the concentrations mean % (w/v)) applied to a 200-mL Erlenmeyer flask, and then cultured at 35° C. with stirring at 170 rpm. The supernatant of the culture medium was recovered every 2 hours from 30 minutes after the fungus body inoculation. Glucose and lactic acid were quantified by the procedures described later in Reference Example 1. A relative value of the production rate of lactic acid was determined on the basis of the calculation method described in Reference Example 2.
# Glucose and lactic acid were quantified using an HPLC apparatus LaChrom Elite (manufactured by Hitachi High-Technologies Corp.). The analytical column used was a carbohydrate/organic acid analysis column HPX-87H (7.8 mm I.D.×30 cm, manufactured by Bio-Rad Laboratories, Inc.) connected with a guard column Cation H (4.6 mm I.D.×3.0 cm, manufactured by Bio-Rad Laboratories, Inc.). Elution was performed under conditions involving 10 mM sulfuric acid as an eluent, a flow rate of 0.85 mL/min, and a column temperature of 50° C. Glucose and lactic acid were detected using a differential refractive index detector (RI detector) and a UV detector (detection wavelength: 210 nm), respectively. The standard samples used were glucose (distributor code: 049-31165, manufactured by Wako Pure Chemical Industries Ltd.), and lithium L-lactate (product number: L2250, manufactured by Sigma-Aldrich Inc.). Quantification was performed on the basis of concentration calibration curves prepared using these standard samples.
# The supernatant sample of each culture medium to be subjected to HPLC analysis was appropriately diluted in advance with 37 mM sulfuric acid and then applied to DISMIC-13cp (0.20 μm cellulose acetate membrane, manufactured by […] Group) or MULTI SCREEN MNHV45 (0.45 μm Durapore membrane, manufactured by EMD Millipore) to remove insoluble matter.
# (§2) The concentration of lactic acid (unit: g of lactic acid/L of medium) in the supernatant sample of each culture medium was measured according to Reference Example 1 and divided by a time (unit: hr) required for change in lactic acid concentration to calculate the production rate of lactic acid per unit time (unit: g of lactic acid/L/hr). In addition, a relative value to the production rate of lactic acid under control conditions in each Production Example was determined.
# [2] = Evaluation of foaming property by the inversion stirring method; type: physicochemical
# Protocol: Each surfactant used in Test Example 2 was evaluated for its foaming properties by the inversion stirring method. 100 mL of a PDB medium non-supplemented or supplemented with 0.5% (w/v) (final concentration) of a surfactant was added to a graduated cylindrical container of 50 mm in diameter and then inversion-stirred for 300 seconds using a flat propeller while the propeller was inverted every 6 seconds at 1000 rpm. 30 seconds after the completion of stirring, the volume of foam in the medium was measured.
# [3] = test system: fungus of the genus Rhizopus; experiment: Evaluation of ability to produce lactic acid by repetitive use of fungus body; type: cell-based; conditions: 0.5% (w/v) at germination, relative to control without surfactant in the first repetition
# Protocol: Mycelia of a fungus of the genus Rhizopus were prepared in a medium non-supplemented with or containing 0.5% (w/v) (final concentration) of the surfactant sorbitan monolaurate (Rheodol(R) SP-L10) by the same procedures as in Test Example 4(2) and then cultured by the same procedures as in Test Example 4(3). The obtained fungus bodies were recovered by the same procedures as in Test Example 5(4). Subsequently, 25 g of the wet fungus bodies was cultured for 4 hours in an inorganic culture medium for lactic acid production evaluation by the same procedures as in Test Example 5. The production rate of lactic acid was determined. The same procedures of fungus body recovery and culture were repeated, and the production rate of lactic acid was determined at each run (the number of repetitions: 3). The production rate of lactic acid at each run was calculated as a relative value to the production rate of lactic acid under the control conditions (in the absence of the surfactant) in the first repetition. The concentration of lactic acid (unit: g of lactic acid/L of medium) in the supernatant sample of each culture medium was measured according to Reference Example 1 and divided by a time (unit: hr) required for change in lactic acid concentration to calculate the production rate of lactic acid per unit time (unit: g of lactic acid/L/hr). In addition, a relative value to the production rate of lactic acid under control conditions in each Production Example was determined.
# [4] = test system: fungus of the genus Rhizopus; experiment: Evaluation of ability to produce lactic acid-4 (surfactant added to the lactic acid production medium); type: cell-based; conditions: for Production rate of lactic acid (relative value): mycelia prepared with 0.5% (w/v), non-supplemented = 100
# Protocol: as §1
# Mycelia of a fungus of the genus Rhizopus were prepared in a medium containing 0.5% (w/v) (final concentration) of sorbitan monolaurate (Rheodol(R) SP-L10) by the same procedures as in Production Example 2 and then cultured by the same procedures as in Production Example 3. The fungus bodies were cultured by the sane procedures as in Test Example 2 and evaluated for its production rate of lactic acid. In this respect, the inorganic medium for lactic acid production evaluation was non-supplemented or supplemented with 0.1% (w/v), 0.2% (w/v), 0.5% (w/v), or 1% (w/v) (final concentration) of Rheodol(R) SP-L10. The amount of lactic acid was measured at 4 hours and 8.5 hours of the culture to calculate the production rate of lactic acid. The production rate of lactic acid was reduced in the medium supplemented with 0.1% (w/v) or higher of Rheodol(R) SP-L10 during lactic acid production.
# as §2
substance,measurement,setting,value
Sorbitan monolaurate,Production rate of lactic acid (relative value),[1],152 relative value
same,Volume of foam relative to the volume of foam in the absence of the surfactant (in words),[2]; 0.5% (w/v) in PDB medium,twice or less
same,Volume of foam (relative value),"[2]; 0.5% (w/v) surfactant in PDB medium, 30 seconds after stirring, foam in the absence of the surfactant = 100",150 relative value
same,Production rate of lactic acid (relative value),[3]; repetition 1,173 relative value
same,Production rate of lactic acid (relative value),[3]; repetition 2,170 relative value
same,Production rate of lactic acid (relative value),[3]; repetition 3,167 relative value
same,Production rate of lactic acid (relative value),[4]; 0.1% w/v added to lactic acid production medium,93 relative value
same,Production rate of lactic acid (relative value),[4]; 0.2% w/v added to lactic acid production medium,67 relative value
same,Production rate of lactic acid (relative value),[4]; 0.5% w/v added to lactic acid production medium,4 relative value
same,Production rate of lactic acid (relative value),[4]; 1% w/v added to lactic acid production medium,0 relative value
same,Production rate of lactic acid (in words),[4]; medium supplemented with 0.1% (w/v) or higher during lactic acid production,reduced
